Experimental data: patent US20260256747A1, “ARYL-TRIAZOLYL AND RELATED GPR84 ANTAGONISTS AND USES THEREOF” (Liminal BioSciences Limited, priority 2022, published 2026)

Molecular target: T1, human GPR84 receptor (Homo sapiens, UniProt Q9NQS5)
T1 construct: host or cells: HEK293 cells, transient transfection
Assay: Gαi biosensor BRET assay in HEK293 cells transfected with GPR84, stimulated with the GPR84 agonist ZQ-16
Format: cell-based
Settings: 200 nmol/L ZQ-16; for inhibition at 10 µM / inhibition at 2 µM: HEK293, single concentration; for inhibition at 10 µM: concentration class F = 10 μM; for inhibition at 2 µM: concentration class A = 2 μM
Description: Background—The following assays can be used for determination of GPR84 activation in living HEK293 cells. The Gαi BRET biosensor (Gagnon et al., 2018; Gales et al., 2006. Nat Struct Mol Biol. 13, 778-86; Saulieres et al., 2012. Nat Chem Biol. 8, 622-30) allows to directly monitor GPR84-mediated activation of Gαi. The Gαi biosensor consists of a Rluc8-tagged Gαi2 subunit, a GFP10-tagged Gγ2 subunit, and an untagged GB1. Agonist stimulation and GPR84 activation triggers a physical separation between the RLuc8-Gαi donor and the GFP10-Gγ2 acceptor, resulting in a decrease in BRET signal whose amplitude is correlated to ligand efficacy (Gales et al., 2006). Moreover, signaling functions of GPCRs are tightly regulated by endocytosis, the targeting of receptors to endosomes and their sorting to lysosomes or recycling to the plasma membrane. The early endosomes (EEs) trafficking assay (Namkung et al., 2016. Nat Commun. 7, 12178) uses Rluc8-tagged GPR84 and Renilla GFP (rGFP) attached to the FYVE domain from human endofin/zinc finger FYVE domain-containing protein 16, which binds phosphatidylinositol 3-phosphate in EEs. Agonist stimulation of GPR84-Rluc8 leads to trafficking of the receptor to EEs, and ensuing increase of the donor concentration relative to the rGFP-FYVE acceptor anchored in the same cellular compartment, and thus results in an increase in BRET signal.
Plasmids—The cDNA clones for human GPR84 receptor, human Gαi2, Gβ1, and Gγ2 were obtained from the cDNA Resource Center (www.cdna.org). GFP10 (F64L, S147P, S202F and H231L variant of Aequorea victoria Green Fluorescent Protein) gBlocks gene fragments (Integrated DNA Technologies, IA) and linker were inserted in frame at the N-terminus of human Gγ2. Rluc8 (A^55T, Cl24A, S130A, K136R, A^143M, M185V, M253L, and S287L variant of the Renilla reniformis luciferase) gBlocks gene fragment was inserted with linkers in frame in between residues 91 and 92 of Gαi2 or at the C-terminus of GPR84. The FYVE domain from human endofin (residues Q739 to K806) attached in frame at the C terminus of a humanized Renilla GFP (rGFP), were synthesized as gBlocks gene fragments.
Bioluminescence Resonance Energy Transfer (BRET) Measurement-HEK293 cells were transfected with GPR84-Rluc8 and rGFP-FYVE for the EEs trafficking biosensor or with GPR84, Gαi2-Rluc8, GFP10-Gγ2, and Gβ1 for the Gαi biosensor. The following day, transiently transfected cells were seeded in 96-well white clear bottom microplates coated with poly-D-lysine and left in culture for 24 hours. Cells were washed once with Tyrode's buffer (140 mmol/L NaCl, 1 mmol/L CaCl2, 2.7 mmol/L KCl, 0.49 mmol/L MgCl2, 0.37 mmol/L NaH2PO4, 5.6 mmol/L glucose, 12 mmol/L NaHCO3, and 25 mmol/L HEPES, pH 7.5) before performing assays in Tyrode's buffer. Test compounds were incubated with cells for 5 (Gai) or 15 (EEs) minutes at 37° C. before addition of 200 nmol/L of the GPR84 agonist ZQ-16 (2-(Hexylthio)-6-hydroxy-4 (3H)-pyrimidinone) for 5 minutes at room temperature (Gai) or 30 minutes at 37° C. (EEs). The Rluc8 substrate coelenterazine 400A (Prolume, Lakeside, AZ) was added at a final concentration of 5 μmol/L and BRET readings were collected using an Infinite M1000 microplate reader (Tecan, Morrisville, NC). BRET2 readings between Rluc8 and GFP10 or rGFP were collected by sequential integration of the signals detected in the 370 to 450 nm (Rluc8) and 510 to 540 nm (GFP10, rGFP) windows. The BRET signal was calculated as the ratio of light emitted by acceptor (GFP10, rGFP) over the light emitted by donor (Rluc8). The values were corrected to net BRET by subtracting the background BRET signal obtained in cells transfected with Rluc8 constructs alone. Ligand-promoted net BRET values were calculated by subtracting vehicle-induced net BRET from ligand-induced net BRET.

T1 sequence (Q9NQS5 whole entry): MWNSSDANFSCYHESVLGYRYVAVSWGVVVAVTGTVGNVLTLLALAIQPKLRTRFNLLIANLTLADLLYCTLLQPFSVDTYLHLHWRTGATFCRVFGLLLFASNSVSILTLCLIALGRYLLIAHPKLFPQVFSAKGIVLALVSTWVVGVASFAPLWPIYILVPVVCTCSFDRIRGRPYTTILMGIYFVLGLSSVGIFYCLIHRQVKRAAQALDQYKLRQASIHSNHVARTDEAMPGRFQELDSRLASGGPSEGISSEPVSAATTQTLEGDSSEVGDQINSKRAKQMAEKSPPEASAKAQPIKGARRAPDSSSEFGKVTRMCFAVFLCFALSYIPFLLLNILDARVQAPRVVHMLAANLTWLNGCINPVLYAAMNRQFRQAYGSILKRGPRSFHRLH

SMILES | IC50 | inhibition at 10 µM | inhibition at 2 µM
CC1(C)COC(Cn2cc(-c3ncc(C(F)(F)F)cc3OC3CC3)nn2)OC1 [Compound I-49] |  |  | 50 to 75%
[2H]C([2H])([2H])N(c1cc(N2CC(C)(CO)C2)ccc1-c1cn(CC2OCC(C)(C)CO2)nn1)C([2H])([2H])[2H] [Compound I-50] | 300 to 1000 nM |  | 
CN(C)C(=O)Cn1cnc(-c2ncc(C#CC3CC3)cc2OC2CC2)c1 [Compound I-51] |  | > 75% | 
CN(C)c1cc(N2CC(C)(CO)C2)c(F)cc1-c1cn(CC2OCC3(CC3)CO2)cn1 [Compound I-52] | ≤ 300 nM | > 75% | 
C(#CC1CC1)c1cnc(-c2cncn2C[C@H]2CCCCO2)c(OC2CC2)c1 [Compound I-53] |  | ≤ 25% | 
[2H]C([2H])([2H])N(c1cc(N2CC(C)(CO)C2)ccc1-c1cn(CC2OCC3(CC3)CO2)nn1)C([2H])([2H])[2H] [Compound I-55] | 300 to 1000 nM | > 75% | 
CCc1cc(N2CCN(Cc3ccccn3)CC2)ccc1-c1cn(CC2OCC3(CC3)CO2)cn1 [Compound I-56] | ≤ 300 nM | > 75% | 
Cc1cc(N2CCN(Cc3ccccn3)CC2)ccc1-c1cn(CC(=O)N(C)C)cn1 [Compound I-62] |  | 25 to 50% | 
O=C(Cn1cc(-c2ncc(C#CC3CC3)cc2OC2CC2)nn1)N1CCCC1 [Compound I-64] | 300 to 1000 nM | > 75% | 
C(#CC1CC1)c1cnc(-c2cn(Cc3cc4ccccc4[nH]3)nn2)c(OC2CC2)c1 [Compound I-70] |  | ≤ 25% | 
CN(C)C(=O)COc1cnc(-c2cn(CC(=O)N(C)C)nn2)c(OC2CC2)c1 [Compound I-71] |  | ≤ 25% | 
CN(C)C(=O)CNc1cnc(-c2cn(CC3OCC4(CC4)CO3)nn2)c(OC2CC2)c1 [Compound I-73] |  | > 75% | 
Cc1cc(C#CCN2CC(C)(C)C2)cnc1-c1nnn(CC2OCC(C)(C)CO2)n1 [Compound I-111] | 1000 to 3000 nM | > 75% | 
CC1(C)CN(CC#Cc2cnc(-c3cn(CC4OCC5(CC5)CO4)nn3)c(CC3CC3)c2)C1 [Compound I-118] | ≤ 300 nM |  | > 75%
CN(C)c1cc(N2CCN(Cc3ccccn3)CC2)ccc1-c1cn(CC2OCC(C)(C)CO2)cn1 [Compound I-137] |  | ≤ 25% | 
Cc1cc(N2CCN(Cc3ccccn3)CC2)ccc1-c1cn(CC2OCC3(CC3)CO2)cn1 [Compound I-139] |  | > 75% | 
CC1(C)COC(Cn2cc(-c3ncc(C#CCN4CC(C)(CO)C4)cc3OC3CC3)nn2)OC1 [Compound I-143] |  |  | > 75%
CC1(CO)CN(c2ccc(-c3cn(CC4OCC5(CCC5)O4)nn3)c(CC(F)(F)F)c2)C1 (centres unmarked) [Compound I-144] |  | > 75% | 
CCN(CC)c1cc(N2CC(C)(CO)C2)ccc1-c1cn(CC2OCC3(CC3)CO2)nn1 [Compound I-147] |  | > 75% | 
CN(c1cn(CC2OCC(C)(C)CO2)nn1)c1cc(C#N)ccc1Cl [Compound I-159] |  | 25 to 50% | 
c1nc(-c2cn(CC3OCC4(CC4)CO3)nn2)c(OC2CC2)cc1-c1nnn[nH]1 [Compound I-205] | ≤ 300 nM |  | > 75%
[2H]C([2H])([2H])C1(C([2H])([2H])[2H])COC(Cn2cc(-c3ccc(N4CC(C)(CO)C4)cc3N(C)C)nn2)OC1 [Compound I-206] |  | ≤ 25% | 
CN(C)C(=O)CCn1cc(-c2ncc(C#CC3CC3)cc2OC2CC2)nn1 [Compound I-213] |  | 25 to 50% | 
Clc1cc(N2CCN(Cc3ccccn3)CC2)cnc1-c1c[nH]cn1 [Compound I-215] |  | ≤ 25% | 

Now from value to molecule:

IC50 | inhibition at 10 µM | inhibition at 2 µM | SMILES
1000 to 3000 nM | > 75% |  | CN(C)c1cc(N2CC3(COC3)C2)ccc1-c1cn(CC2OCC(C)(C)CO2)cn1 [Compound I-45, 2-(1-((5,5-dimethyl-1,3-dioxan-2-yl)methyl)-1H-imidazol-4-yl)-N,N-dimethyl-5-(2-oxa-6-azaspiro[3.3]heptan-6-yl)aniline]
 | ≤ 25% |  | COc1ccc(C#Cc2cnn(CC3OCC(C)(C)CO3)n2)cc1 [Compound I-46]
 | 50 to 75% |  | CN(C)C(=O)Cn1cnc(-c2ccc(N3CC(C)(CO)C3)cc2N(C)C)c1 [Compound I-47]
≤ 300 nM | > 75% |  | Cc1cc(N2CCN(C(C)c3ccccn3)CC2)ccc1-c1cn(CC2OCC3(CC3)CO2)cn1 (centres unmarked) [Compound I-48]
≤ 300 nM |  | > 75% | C(#CC1CC1)c1cnc(-c2cn(C[C@H]3CCCCO3)cn2)c(OC2CC2)c1 [Compound I-54]
 | 25 to 50% |  | O=C(NC1CC1)c1cnc(-c2cn(CC3OCC4(CC4)CO3)nn2)c(OC2CC2)c1 [Compound I-57]
 | > 75% |  | CC1(C)COC(Cn2cc(Cc3cc(C#CC4CC4)ccc3C(F)(F)F)nn2)OC1 [Compound I-58]
 | ≤ 25% |  | CN(C(=O)c1cnc(-c2cn(CC3OCC4(CC4)CO3)nn2)c(OC2CC2)c1)C1CC1 [Compound I-59, 6-(1-((5,7-dioxaspiro[2.5]octan-6-yl)methyl)-1H-1,2,3-triazol-4-yl)-5-cyclopropoxy-N-cyclopropyl-N-methylnicotinamide]
 | 25 to 50% |  | CN(C)C(=O)c1cnc(-c2cn(CC3OCC4(CC4)CO3)nn2)c(OC2CC2)c1 [Compound I-61]
 | ≤ 25% |  | O=C(O)Cn1cc(-c2ncc(C#CC3CC3)cc2OC2CC2)nn1 [Compound I-63]
 | 25 to 50% |  | O=C1OC(c2ccc(C#CC3CC3)cc2)CN1CC1CCCCO1 (centres unmarked) [Compound I-65]
 | 50 to 75% |  | CNC(=O)c1cnc(-c2cn(CC3OCC4(CC4)CO3)nn2)c(OC2CC2)c1 [Compound I-66]
 | 25 to 50% |  | CNC(=O)Cn1cc(-c2ncc(C#CC3CC3)cc2OC2CC2)nn1 [Compound I-67]
 | 25 to 50% |  | CN(C)C(=O)COc1cnc(-c2cn(CC3OCC4(CC4)CO3)nn2)c(OC2CC2)c1 [Compound I-72]
 |  | 50 to 75% | Cc1ccc(C#CC2CC2)cc1C(F)(F)c1cn(CC2CCCCO2)nn1 (centres unmarked) [Compound I-99]
1000 to 3000 nM | > 75% |  | CC1(C)COC(Cn2cc(Cc3cc(C#CC4CC4)ccc3Cl)nn2)OC1 [Compound I-136]
 | ≤ 25% |  | CN(c1ccc(C#CC2CC2)cc1)c1cn(CC2OCC(C)(C)CO2)nn1 [Compound I-149]
 | 25 to 50% |  | CN(c1cccc(C#N)c1)c1cn(CC2OCC(C)(C)CO2)nn1 [Compound I-160]
 | 50 to 75% |  | NC(=O)c1cnc(-c2cn(CC3OCC4(CC4)CO3)nn2)c(OC2CC2)c1 [Compound I-204]
 | 25 to 50% |  | c1ccc(CN2CCN(c3cnc(-c4cn(CC5OCC6(CC6)CO5)cn4)c(OC4CC4)c3)CC2)nc1 [Compound I-211]
 | 50 to 75% |  | Clc1cc(N2CCN(Cc3ccccn3)CC2)cnc1-c1cn(CC2OCC3(CC3)CO2)cn1 [Compound I-212]
 | 50 to 75% |  | Clc1cc(N2CCN(Cc3ccccn3)CC2)cnc1-c1cncn1CC1OCC2(CC2)CO1 [Compound I-214]
 | ≤ 25% |  | CN(C)C(=O)Cn1cc(-c2ncc(C#CC3CC3)cc2OC2CC2)cn1 [Compound I-216]
 | 25 to 50% |  | O=C(Cn1cc(-c2ncc(C#CC3CC3)cc2OC2CC2)cn1)N1CCCC1 [Compound I-217]
